{"source": "patent US20230015532A1", "about": "“PHARMACEUTICAL COMPOSITION, FOR PREVENTING OR TREATING FIBROSIS, COMPRISING PHEOPHORBIDE COMPOUND AS ACTIVE INGREDIENT” (PAEAN BIOTECHNOLOGY INC., priority 2019, published 2023)", "key": {"[1]": {"system": "α-SMA, collagen 1A and fibronectin in CCD8-Lu cells", "test": "Comparison of anti-fibrotic activity by Western blotting (Experimental Example 4.2)", "format": "cell-based, human", "conditions": "2.5 μM and 5 μM, 6 hours after 5 ng/ml TGF-β, 18 hours", "method": "A cell-based analysis experiment was performed to analyze the anti-fibrotic activity of pheophorbide a in comparison with nintedanib and pirfenidone, which were previously approved as a therapeutic agent for pulmonary fibrosis, using Western blotting assay.\nCCD8-Lu cells, which are human lung-derived fibroblasts, were cultured in the DMEM medium containing 10% FBS. About 2×10^5 cells were then inoculated into a 6 well plate, cultured for 24 hours, and subjected to the deficient condition in the DMEM medium from which FBS was removed for about 24 hours.\n24 hours later, following the treatment with TGF-β at a concentration of 5 ng/ml, fibrosis of cells was induced for 6 hours. Then, the cells were treated with pheophorbide a obtained in Preparation Example 2 or the therapeutic agent for pulmonary fibrosis and further cultured for 18 hours. Then, the negative control group was treated with nothing, the positive control group was treated with TGF-β alone at a concentration of 5 ng/ml, and the experimental groups were treated with TGF-β at a concentration of 5 ng/ml and 6 hours later, with pheophorbide a at a concentration of […] or 5 μM, nintedanib at a concentration of 1 μM, and pirfenidone at a concentration of 1 mM, respectively.\nAfter 18 hours, the culture medium was removed and the cells were washed twice by adding a PBS buffer solution, and 100 μl of RIPA buffer solution (150 mM NaCl, 1% NP-40, 0.5% Deoxycholic acid, 0.1% SDS, 50 mM Tris pH 7.5) containing a protease inhibitor was added thereto directly. 10 minutes later, the cells were recovered using a scraper and transferred to a microtube and centrifuged at about 12,000×g for 10 minutes.\nThe separated supernatant was obtained and transferred to a new microtube and then the protein was quantified using a bicinchoninic acid assay (BCA assay) protein quantitative kit. Each sample with the same amount of protein was subjected to electrophoresis, and then Western blotting was performed. […]"}, "[2]": {"system": "Smad protein activity in Balb/c3T3 cells", "test": "Smad-binding luciferase reporter assay of TGF-β signaling", "format": "cell-based", "conditions": "0.06-5 μM together with 5 ng/ml TGF-β, 20 hours", "method": "A vector was prepared in which a gene obtained by repeating eight times the nucleotide sequence (5′-[…]-3′ SEQ ID NO: 1) to which the Smad gene can bind was linked to a gene encoding luciferase as a reporter gene. The above vector was transfected into Balb/c3T3 cells together with a vector in which the RSV promoter gene was linked to a gene encoding beta-galactosidase. After 6 hours, the negative control group was treated with nothing, the positive control group was treated with TGF-β at a concentration of 5 ng/ml, and the experimental groups were treated with pheophorbide a obtained in Preparation Example 2 at each concentration of 0.06 μM, 0.12 μM, 0.25 μM, 0.5 μM, 1 μM, and 5 μM, together with 5 ng/ml of TGF-β.\nThe cells were then cultured in 5% CO2 incubator at 37° C. for 20 hours, and then luciferase analysis was performed."}}, "data": [{"substance": "pheophorbide a", "values": [{"measurement": "expression of the α-SMA, collagen 1A, and fibronectin induced by TGF-β", "setting": "[1]", "value": "remarkably inhibited"}, {"measurement": "activity of Smad protein increased by TGF-β (luciferase)", "setting": "[2]", "value": "decreased by pheophorbide a in a concentration-dependent manner"}]}]}
